Like-named read-outs stand apart in the source and are kept apart here.
Assays:
JAK2 = molecular target: T1, JAK2 (Homo sapiens, UniProt O60674); assay: Kinobeads assay, JAK2 (competition binding in mixed Molt4/Ramos cell lysate, dot blot detection); details: read-out: JAK2 Band (Kinobeads assay potency, IC50)
T1 construct: endogenous in cells; host or cells: Molt4 (ATCC CRL-1582) and Ramos (ATCC CRL-1596), mixed lysate 1:2
Description: (§1) The compounds of the present invention as described in the previous examples were tested in a Kinobeads™ assay as described for ZAP-70 (WO-A 2007/137867). Briefly, test compounds (at various concentrations) and the affinity matrix with the immobilized aminopyrido-pyrimidine ligand 24 were added to cell lysate aliquots and allowed to bind to the proteins in 10 the lysate sample. After the incubation time the beads with captured proteins were separated from the lysate. Bound proteins were then eluted and the presence of TYK2 and JAK2 was detected and quantified using specific antibodies in a dot blot procedure and the Odyssey infrared detection system. Dose response curves for individual kinases were generated and IC50 values calculated. Kinobeads™ assays have been previously described (WO-A 2007/137867; WO-A 2006/134056).
(§2) The affinity matrix was washed two times with 15 mL of 1×DP buffer containing 0.2% NP40 (IGEPAL® CA-630, Sigma, #13021) and then resuspended in 1×DP buffer containing 0.2% NP40 (3% beads slurry). 5×DP buffer: 250 mM Tris-HCl pH 7.4, 25% Glycerol, 7.5 mM MgCl2, 750 mM NaCl, 5 mM Na3VO4; filter the 5×DP buffer through a 0.22 μm filter and store in aliquots at −80° C. The 5×DP buffer is diluted with H2O to 1×DP buffer containing 1 mM DTT and 25 mM NaF.
(§3) Stock solutions of test compounds were prepared in DMSO. In a 96 well plate 30 μL solution of diluted test compounds at 5 mM in DMSO were prepared. Starting with this solution a 1:3 dilution series (9 steps) was prepared. For control experiments (no test compound) a buffer containing 2% DMSO was used.
(§4) Molt4 cells (ATCC catalogue number CRL-1582) and Ramos cells (ATCC catalogue number CRL-1596) were grown in 1 L Spinner flasks (Integra Biosciences, #182101) in suspension in RPMI 1640 medium (Invitrogen, #21875-034) supplemented with 10% Fetal Bovine Serum (Invitrogen) at a density between 0.15×10^6 and 1.2×10^6 cells/mL. Cells were harvested by centrifugation, washed once with 1×PBS buffer (Invitrogen, #14190-094) and cell pellets were frozen in liquid nitrogen and subsequently stored at −80° C. Cells were homogenized in a Potter S homogenizer in lysis buffer: 50 mM Tris-HCl, 0.8% NP40, 5% glycerol, 150 mM NaCl, 1.5 mM MgCl2, 25 mM NaF, 1 mM sodium vanadate, 1 mM DTT, pH 7.5. One complete EDTA-free tablet (protease inhibitor cocktail, Roche Diagnostics, 1873580) per 25 mL buffer was added. The material was dounced 10 times using a mechanized POTTER S, transferred to 50 mL falcon tubes, incubated for 30 minutes on ice and spun down for 10 minutes at 20,000 g at 4° C. (10,000 rpm in Sorvall SLA600, precooled). The supernatant was transferred to an ultracentrifuge (UZ)-polycarbonate tube (Beckmann, 355654) and spun for 1 hour at 100.000 g at 4° C. (33.500 rpm in Ti50.2, precooled). The supernatant was transferred again to a fresh 50 mL falcon tube, the protein concentration was determined by a Bradford assay (BioRad) and samples containing 50 mg of protein per aliquot were prepared. The samples were immediately used for experiments or frozen in liquid nitrogen and stored frozen at −80° C.
(§5) Cell lysate (approximately 50 mg protein per plate) was thawed in a water bath at room temperature and then stored on ice. To the thawed cell lysate 1×DP 0.8% NP40 buffer containing protease inhibitors (1 tablet for 25 mL buffer; EDTA-free protease inhibitor cocktail; Roche Diagnostics 1873580) was added in order to reach a final protein concentration of 10 mg/mL total protein. The diluted cell lysate was stored on ice. Mixed Molt4/Ramos lysate was prepared by combining one volume of Molt4 lysate and two volumes of Ramos lysate (ratio 1:2).
(§6) To a 96 well filter plate (Multiscreen HTS, BV Filter Plates, Millipore #MSBVN1250) were added per well: 100 μL affinity matrix (3% beads slurry), 3 μL of compound solution, and 50 μL of diluted lysate. Plates were sealed and incubated for 3 hours in a cold room on a plate shaker (Heidolph tiramax 1000) at 750 rpm. […]

TYK2 = molecular target: T2, TYK2 (Homo sapiens, UniProt P29597); assay: Kinobeads assay, TYK2 (competition binding in mixed Molt4/Ramos cell lysate, dot blot detection)
T2 construct: endogenous in cells; host or cells: Molt4 (ATCC CRL-1582) and Ramos (ATCC CRL-1596), mixed lysate 1:2
T2 sequence (P29597 whole entry): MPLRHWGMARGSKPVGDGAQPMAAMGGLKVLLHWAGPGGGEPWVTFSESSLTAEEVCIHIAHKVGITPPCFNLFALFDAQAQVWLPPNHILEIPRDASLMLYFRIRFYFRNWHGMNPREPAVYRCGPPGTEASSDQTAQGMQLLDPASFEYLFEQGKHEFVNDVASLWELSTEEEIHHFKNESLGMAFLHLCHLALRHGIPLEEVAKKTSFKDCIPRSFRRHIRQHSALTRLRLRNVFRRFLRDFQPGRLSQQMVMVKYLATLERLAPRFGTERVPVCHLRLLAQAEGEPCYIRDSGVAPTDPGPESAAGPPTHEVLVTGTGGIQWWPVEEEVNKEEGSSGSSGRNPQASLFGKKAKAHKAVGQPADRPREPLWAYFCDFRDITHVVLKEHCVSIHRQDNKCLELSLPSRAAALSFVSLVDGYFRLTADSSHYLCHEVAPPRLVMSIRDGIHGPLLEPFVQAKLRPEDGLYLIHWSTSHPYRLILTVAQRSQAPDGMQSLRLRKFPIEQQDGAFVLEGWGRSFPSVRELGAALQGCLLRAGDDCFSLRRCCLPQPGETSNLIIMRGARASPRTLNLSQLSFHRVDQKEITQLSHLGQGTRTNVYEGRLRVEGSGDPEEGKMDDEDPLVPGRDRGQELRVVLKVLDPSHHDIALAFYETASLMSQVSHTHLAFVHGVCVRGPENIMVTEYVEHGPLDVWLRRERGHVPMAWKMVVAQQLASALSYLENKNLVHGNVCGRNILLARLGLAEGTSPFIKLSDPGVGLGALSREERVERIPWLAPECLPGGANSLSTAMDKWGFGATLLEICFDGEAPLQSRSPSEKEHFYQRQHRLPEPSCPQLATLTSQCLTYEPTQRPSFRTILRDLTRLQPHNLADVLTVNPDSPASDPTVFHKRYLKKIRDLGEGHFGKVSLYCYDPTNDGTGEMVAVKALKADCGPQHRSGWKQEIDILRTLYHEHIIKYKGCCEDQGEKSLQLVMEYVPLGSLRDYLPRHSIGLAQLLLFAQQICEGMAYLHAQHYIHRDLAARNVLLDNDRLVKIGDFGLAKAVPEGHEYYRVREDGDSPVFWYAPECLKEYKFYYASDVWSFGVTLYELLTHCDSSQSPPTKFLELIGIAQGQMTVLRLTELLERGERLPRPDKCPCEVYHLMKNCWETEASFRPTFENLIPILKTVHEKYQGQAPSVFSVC
Description: as §1, §2, §3, §4, §5, §6

[1] = Kinobeads assay, Molt4/Ramos lysate, read-out: TYK2 Band (Kinobeads assay potency, IC50)

T1 sequence (O60674 whole entry): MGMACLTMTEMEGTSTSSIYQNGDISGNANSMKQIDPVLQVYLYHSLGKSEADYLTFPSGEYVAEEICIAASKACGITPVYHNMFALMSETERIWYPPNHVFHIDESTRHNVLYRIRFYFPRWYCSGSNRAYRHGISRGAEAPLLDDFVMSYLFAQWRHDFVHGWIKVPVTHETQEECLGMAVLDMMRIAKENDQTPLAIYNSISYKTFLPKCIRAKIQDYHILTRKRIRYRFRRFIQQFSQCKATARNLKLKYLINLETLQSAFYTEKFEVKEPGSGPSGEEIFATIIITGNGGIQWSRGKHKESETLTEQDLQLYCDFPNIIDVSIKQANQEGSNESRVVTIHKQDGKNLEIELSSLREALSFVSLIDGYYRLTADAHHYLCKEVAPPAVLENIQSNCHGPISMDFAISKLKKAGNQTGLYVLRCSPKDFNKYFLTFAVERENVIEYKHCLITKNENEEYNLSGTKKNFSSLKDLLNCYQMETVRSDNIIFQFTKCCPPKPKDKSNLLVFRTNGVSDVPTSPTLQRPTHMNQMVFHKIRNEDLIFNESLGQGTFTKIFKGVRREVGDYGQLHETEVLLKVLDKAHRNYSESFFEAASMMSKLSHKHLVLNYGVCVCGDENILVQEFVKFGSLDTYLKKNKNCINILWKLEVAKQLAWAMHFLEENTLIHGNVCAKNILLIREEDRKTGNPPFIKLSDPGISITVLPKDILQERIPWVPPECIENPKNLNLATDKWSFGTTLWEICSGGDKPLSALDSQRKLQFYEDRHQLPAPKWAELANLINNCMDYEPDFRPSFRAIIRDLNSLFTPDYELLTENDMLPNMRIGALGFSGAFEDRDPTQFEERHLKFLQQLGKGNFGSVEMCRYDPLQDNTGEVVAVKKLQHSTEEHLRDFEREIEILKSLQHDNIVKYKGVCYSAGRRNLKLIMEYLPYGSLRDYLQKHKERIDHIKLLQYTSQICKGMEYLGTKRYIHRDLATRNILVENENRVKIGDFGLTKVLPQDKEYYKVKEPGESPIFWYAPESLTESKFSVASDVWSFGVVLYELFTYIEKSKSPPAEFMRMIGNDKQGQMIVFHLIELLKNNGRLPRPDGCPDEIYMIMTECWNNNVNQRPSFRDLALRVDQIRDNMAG

Compound	IC50 (JAK2) [nM]	IC50 (TYK2; [1]) [nM]	IC50 (TYK2; read-out: TYK2 IC50) [nM]
CC1(C)CN(C(=O)Cn2cc(Nc3ncc(F)c(NCc4c(F)cc(F)cc4F)n3)cn2)CCO1 [Example I-39]	1000 to 10000	10 to 100	–
C[C@@H]1COCCN1C(=O)Cn1cc(Nc2ncc(F)c(NCc3c(F)cc(F)cc3F)n2)cn1 [Example I-40]	1000 to 10000	10 to 100	–
C[C@H](CO)NC(=O)Cn1cc(Nc2ncc(F)c(NCc3c(F)cc(F)cc3F)n2)cn1 [Example I-41]	1000 to 10000	10 to 100	–
C[C@@H](CO)NC(=O)Cn1cc(Nc2ncc(F)c(NCc3c(F)cc(F)cc3F)n2)cn1 [Example I-42]	1000 to 10000	≤ 10	–
Cc1cnc(Nc2cnn(C)c2)nc1NCc1c(F)cc(S(N)(=O)=O)cc1F [Example I-43]	100 to 1000	10 to 100	–
O=C(Cn1cc(Nc2ncc(F)c(NCc3cccc(OC(F)F)c3)n2)cn1)N1CCOCC1 [Example I-44]	1000 to 10000	≤ 10	–
CC(C)NC(=O)Cn1cc(Nc2ncc(F)c(NCc3cccc(OC(F)F)c3)n2)cn1 [Example I-45]	> 10000	10 to 100	–
O=C(Cn1cc(Nc2ncc(F)c(NCc3cccc(OC(F)F)c3)n2)cn1)NC1CC1 [Example I-46]	> 10000	10 to 100	–
COc1ccc(F)c(CNc2nc(Nc3cnn(CC(=O)OC(C)C)c3)ncc2F)c1F [Example I-47]	> 10000	10 to 100	–
COc1ccc(F)c(CNc2nc(Nc3cnn(CC(=O)NC(C)C)c3)ncc2F)c1F [Example I-48]	1000 to 10000	≤ 10	–
O=C(Cn1cc(Nc2ncc(F)c(NCc3c(Cl)cccc3Cl)n2)cn1)N1CCOCC1 [Example I-49]	1000 to 10000	10 to 100	–
CC(C)NC(=O)Cn1cc(Nc2nccc(NCc3c(F)cc(F)cc3F)n2)cn1 [Example I-50]	1000 to 10000	10 to 100	< 100
CC(C)(C)NC(=O)Cn1cc(Nc2nccc(NCc3c(F)cc(F)cc3F)n2)cn1 [Example I-51]	> 10000	10 to 100	–
C[C@H]1COCCN1C(=O)Cn1cc(Nc2nccc(NCc3c(F)cc(F)cc3F)n2)cn1 [Example I-52]	1000 to 10000	10 to 100	–
CCOC(=O)Cn1cc(Nc2ncc(F)c(NCc3c(F)ccc(OC)c3F)n2)cn1 [Example I-53]	1000 to 10000	10 to 100	–
CCOC(=O)Cn1cc(Nc2ncc(F)c(NCc3c(F)cc(F)cc3F)n2)cn1 [Example I-54, Ethyl 2-(4-((5-fluoro-4-((2,4,6-trifluorobenzyl)amino)pyrimidin-2-yl)amino)-1H-pyrazol-1-yl)acetate]	1000 to 10000	10 to 100	–
Cn1cc(Nc2nccc(NCc3c(F)cccc3Cl)n2)cn1 [Example I-55]	1000 to 10000	10 to 100	–
CC(C)N(C)C(=O)Cn1cc(Nc2ncc(F)c(NCc3cccc(OC(F)F)c3)n2)cn1 [Example I-56]	> 10000	10 to 100	–
COc1ccc(F)c(CNc2nc(Nc3cnn(CC(=O)N(C)C(C)C)c3)ncc2F)c1F [Example I-57]	1000 to 10000	≤ 10	–
CCC(CC)NC(=O)Cn1cc(Nc2ncc(F)c(NCc3c(F)cc(F)cc3F)n2)cn1 [Example I-58]	> 10000	10 to 100	–

Compound	IC50 (JAK2) [nM]	IC50 (TYK2; [1]) [nM]	IC50 (TYK2; read-out: TYK2 IC50) [nM]
CC(C)N(C)C(=O)Cn1cc(Nc2ncc(F)c(NCc3c(F)cc(F)cc3F)n2)cn1 [Example I-59]	1000 to 10000	≤ 10	–
Cn1cc(Nc2nccc(NCc3c(Cl)ccc(Cl)c3F)n2)cn1 [Example I-60]	100 to 1000	10 to 100	–
COc1ccc(Cl)c(CNc2ccnc(Nc3cnn(C)c3)n2)c1F [Example I-61]	100 to 1000	10 to 100	–
CC(C)NC(=O)Cn1cc(Nc2nccc(NCc3c(F)cccc3F)n2)cn1 [Example I-62]	> 10000	10 to 100	< 100
CC(C)NC(=O)Cn1cc(Nc2nccc(NCc3c(F)ccc(F)c3F)n2)cn1 [Example I-63]	1000 to 10000	≤ 10	–
COc1cc(F)c(CNc2ccnc(Nc3cnn(CC(=O)NC(C)C)c3)n2)c(F)c1 [Example I-64]	> 10000	10 to 100	–
COc1ccc(F)c(CNc2ccnc(Nc3cnn(CC(=O)NC(C)C)c3)n2)c1F [Example I-65]	1000 to 10000	10 to 100	< 100
CC(C)NC(=O)Cn1cc(Nc2ncc(F)c(NCc3c(F)cccc3F)n2)cn1 [Example I-66]	1000 to 10000	≤ 10	–
CC(C)NC(=O)Cn1cc(Nc2nccc(NCc3cccc(OC(F)F)c3)n2)cn1 [Example I-67]	> 10000	10 to 100	< 100
Cn1cc(Nc2nccc(NCc3c(Cl)ccc(F)c3F)n2)cn1 [Example I-68]	100 to 1000	10 to 100	–
COc1cc(F)c(CNc2nc(Nc3cnn(CC(=O)NC(C)C)c3)ncc2F)c(F)c1 [Example I-70]	> 10000	10 to 100	–
COC[C@H](C)NC(=O)Cn1cc(Nc2ncc(F)c(NCc3c(F)cc(F)cc3F)n2)cn1 [Example I-71]	> 10000	10 to 100	–
CS(=O)(=O)c1ccc(F)cc1CNc1nc(Nc2cn[nH]c2)ncc1Cl [Example I-72]	100 to 1000	10 to 100	–
C[C@H]1COCCN1C(=O)Cn1cc(Nc2ncc(F)c(NCc3c(F)cc(F)cc3F)n2)cn1 [Example I-73]	1000 to 10000	≤ 10	–
CS(=O)(=O)c1ccc(F)cc1CNc1nc(Nc2cnn(CC(=O)NC3CC3)c2)ncc1Cl [Example I-74]	100 to 1000	10 to 100	–
C[C@@H](CO)NC(=O)Cn1cc(Nc2nccc(NCc3c(F)cc(F)cc3F)n2)cn1 [Example I-75]	> 10000	≤ 10	–
CC(C)NC(=O)Cn1cc(Nc2nccc(NCc3c(Cl)cccc3Cl)n2)cn1 [Example I-76]	> 10000	10 to 100	–
CC(C)NC(=O)Cn1cc(Nc2nccc(NCc3c(F)cccc3Cl)n2)cn1 [Example I-77]	1000 to 10000	≤ 10	–
CC(C)NC(=O)Cn1cc(Nc2nccc(NCc3c(Cl)ccc(Cl)c3F)n2)cn1 [Example I-78]	100 to 1000	≤ 10	–

Reference: patent US9296725B2, “Heterocyclyl pyrimidine analogues as TYK2 inhibitors” (Cellzome Limited, priority 2012, dated 2016)
